Assay results taken from US20170246206A1, “Calcium Formate for Use as a Dietary Supplement” (Wisconsin Alumni Research Foundation, priority 1999, published 2017).
Like-named read-outs stand apart in the source and are kept apart here.

Assays:
[1] = Description: Twenty 15-day-old weanling rats from Holzmann Company were placed on a an adequate synthetic diet called “Diet 11” (Suda, T., et al., J. Nutr. 100:1049-1052, 1970). This diet is supplemented with vitamins A, D, E and K as described in that paper. Therefore, these are vitamin D-sufficient animals.
The animals were then placed on a basal diet that contains 0.02% calcium, i.e. an extremely low calcium diet. These animals served as controls. Another group were placed on the same diet containing calcium formate, providing calcium at 0.25% of the diet. Another group was supplied calcium formate at 0.47% calcium in the diet, and another group was provided 0.47% calcium in the form of calcium carbonate. Growth of the animals reflects the ability of the animals to utilize calcium. […] 57:449-468 (1955).

Remark: listed apart in the source
[2] = 1% Ca formate in diet, 1 week on diet
[3] = 1% Ca formate in diet, 2 weeks on diet
[4] = 2% Ca formate in diet, 1 week on diet
[5] = 2% Ca formate in diet, 2 weeks on diet
[6] = 3% Ca formate in diet, 1 week on diet
[7] = 3% Ca formate in diet, 2 weeks on diet

Which “Average Body Weight ± S.E.M for 5 Rats” value ([1]; 0.47% Ca in diet, day 7) does the source give for `O=C([O-])[O-].[Ca+2]` [Calcium Carbonate, calcium carbonate, reference compound] here?
Its value is 48.6 ± 4.9 Grams.

And the “Average Body Weight ± S.E.M for 5 Rats” value ([1]; 0.47% Ca in diet, day 14)?
The value was 80.4 ± 10.4 Grams.

And the “Average Body Weight ± S.E.M for 5 Rats” value ([1]; 0.47% Ca in diet, day 21)?
The value was 126.2 ± 11 Grams.

With `O=C[O-].O=C[O-].[Ca+2]` [Calcium Formate, calcium formate] as the molecule, how does the “Average Body Weight ± S.E.M for 5 Rats” value ([1]; 0.25% Ca in diet, day 7) read?
The value was 54.3 ± 4.0 Grams.

What about the “Average Body Weight ± S.E.M for 5 Rats” value ([1]; 0.25% Ca in diet, day 14) of the same molecule?
The value was 84.6 ± 5.5 Grams.

And the “Average Body Weight ± S.E.M for 5 Rats” value ([1]; 0.25% Ca in diet, day 21)?
Its value is 131.0 ± 5.7 Grams.

And the “Growth in comparison to other treatment groups” value ([1]; 0.25% calcium as the formate)?
Its value is “slightly better growth”.

What about the “Average Body Weight ± S.E.M for 5 Rats” value ([1]; 0.47% Ca in diet, day 7) of the same molecule?
Its value is 51.0 ± 10.6 Grams.

And the “Average Body Weight ± S.E.M for 5 Rats” value ([1]; 0.47% Ca in diet, day 14)?
Its value is 78.0 ± 19^ Grams.

And the “Average Body Weight ± S.E.M for 5 Rats” value ([1]; 0.47% Ca in diet, day 21)?
Its value is 127 ± 11 Grams.

And the “Ability to supply calcium to experimental rats” value ([1]; compared with calcium carbonate)?
The value was “at least equal to calcium carbonate”.

What about the “Serum (mean ± SEM)” value [2] of the same molecule?
The value was 3.25 ± .31 mg %.

What about the Weight [2] of the same molecule?
The Weight was 229 ± 5.5.

And the “Serum Ca (mean ± SEM)” value [3]?
Its value is 14.0 ± .51 mg %.

What about the Weight [3] of the same molecule?
Its Weight is 211 ± 3.8.

And the “Serum (mean ± SEM)” value [4]?
The value was 2.50 ± .32 mg %.

And the Weight [4]?
The Weight was 211 ± 6.3.

And the “Serum (mean ± SEM)” value [5]?
The value was 2.7 ± .24 mg %.

What about the “Serum Ca (mean ± SEM)” value [5] of the same molecule?
Its value is 12.8 ± .94 mg %.

What about the Weight [5] of the same molecule?
Its Weight is 198 ± 5.2.

And the “Difference in serum phosphorus between dose levels” value (2% vs 3% calcium formate in diet)?
Its value is “little difference in serum phosphorus”.

And the “Serum (mean ± SEM)” value [6]?
Its value is 2.5 ± .20 mg %.

What about the Weight [6] of the same molecule?
The Weight was 194 ± 6.5.

What about the “Serum (mean ± SEM)” value [7] of the same molecule?
Its value is 2.9 ± 0.8 mg %.

What about the “Serum Ca (mean ± SEM)” value [7] of the same molecule?
Its value is 12.9 ± 1.3 mg %.

What about the Weight [7] of the same molecule?
The Weight was 150 ± 8.0.

And the “Serum phosphorus compared with control rats” value (all rats supplied with calcium formate (1-3% of diet))?
Its value is “less serum phosphorus than control rats”.
